In PubChem BioAssay (NCI):
Values joined by “and” are separate entries in the source; they are usually repeats but may differ in a detail not shown here. Equal values may be shown once.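 Step 1: Grow cells in 96-well plates. Step 2: Expose to compound for 48 hours at 5 concentrations. Step 3: Interpolate endpoints linearly; if unreached, use highest concentration. GI50 = concentration required for 50% inhibition of growth. TGI: concentration producing complete growth inhibition.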

What was measured:
Test in all cases: NCI-60 cell line screen, 48 h
CCRF-CEM leukemia = test system: CCRF-CEM leukemia
UO-31 renal = test system: UO-31 renal
NCI-H226 lung = test system: NCI-H226 lung
SNB-19 CNS = test system: SNB-19 CNS
OVCAR-3 ovarian = test system: OVCAR-3 ovarian
IGROV1 ovarian = test system: IGROV1 ovarian
SK-MEL-5 melanoma = test system: SK-MEL-5 melanoma
SR leukemia = test system: SR leukemia
SF-268 CNS = test system: SF-268 CNS
MDA-MB-231 breast = test system: MDA-MB-231 breast

In the case of `CCCCC#C[I+]c1ccccc1`, the TGI (CCRF-CEM leukemia) is reported as 24.4 µM, the TGI (UO-31 renal) is reported as 30 µM and the TGI (NCI-H226 lung) is reported as 30.7 µM. For the same compound, the TGI (SNB-19 CNS) was 30.9 µM, the TGI (OVCAR-3 ovarian) was 30.7 µM and the TGI (IGROV1 ovarian) was 36.4 µM. The TGI (SK-MEL-5 melanoma) was 31.1 µM, the TGI (SR leukemia) was 37.5 µM and the TGI (SF-268 CNS) was 39.7 µM.
`COCO[C@@H]1C[C@H]2C(=O)Nc3ccccc3C(=O)N2C1` showed a TGI (UO-31 renal) of 74.5 µM, a TGI (NCI-H226 lung) greater than 100 µM and a TGI (SNB-19 CNS) greater than 100 µM. The TGI (IGROV1 ovarian) was greater than 100 µM, the TGI (SK-MEL-5 melanoma) was greater than 100 µM and the TGI (MDA-MB-231 breast) was greater than 100 µM. It also gave a TGI (SF-268 CNS) greater than 100 µM.
`CCOC(=O)c1cn2c(n1)sc1cccc(C)c12` gave a TGI (UO-31 renal) greater than 100 µM, a TGI (NCI-H226 lung) greater than 100 µM and a TGI (SNB-19 CNS) greater than 100 µM. For the same compound, the TGI (OVCAR-3 ovarian) was greater than 100 µM, the TGI (IGROV1 ovarian) was greater than 100 µM and the TGI (SK-MEL-5 melanoma) was greater than 100 µM. For the same compound, the TGI (MDA-MB-231 breast) was greater than 100 µM and the TGI (SF-268 CNS) was greater than 100 µM.
Work on `CC(C)(C)OC(=O)N[C@H]1CCN(C2CCCCC2)C1=O` yielded a TGI (CCRF-CEM leukemia) greater than 100 µM, a TGI (UO-31 renal) greater than 100 µM and a TGI (NCI-H226 lung) greater than 100 µM. For the same compound, the TGI (SNB-19 CNS) was greater than 100 µM, the TGI (IGROV1 ovarian) was greater than 100 µM and the TGI (SK-MEL-5 melanoma) was greater than 100 µM. For the same compound, the TGI (MDA-MB-231 breast) was greater than 100 µM and the TGI (SF-268 CNS) was greater than 100 µM.
In the case of `O=C(NC(=O)c1ccccc1[N+](=O)[O-])Nc1ccc(Oc2ncc(Br)cn2)c(Cl)c1`, the GI50 (CCRF-CEM leukemia) is reported as less than 0.0194 µM, the GI50 (NCI-H226 lung) is reported as less than 0.0175 µM and the TGI (NCI-H226 lung) is reported as 0.0292 µM and < 0.0313 µM. The GI50 (SNB-19 CNS) was 0.0693 µM, the GI50 (OVCAR-3 ovarian) was less than 0.0158 µM and the TGI (OVCAR-3 ovarian) was 0.0767 µM. The GI50 (SK-MEL-5 melanoma) was 0.04 µM.
With `C[C@@H]1CC[C@]2(C(=O)O)CC[C@]3(C)C(=CC[C@@H]4[C@@]5(C)CC[C@H](O)C(C)(C)[C@@H]5CC[C@]43C)[C@@H]2[C@]1(C)O` the TGI (CCRF-CEM leukemia) was 23.2 µM, the TGI (UO-31 renal) was 23.5 µM and the TGI (SNB-19 CNS) was 29.7 µM. The TGI (OVCAR-3 ovarian) was 32.6 µM, the TGI (IGROV1 ovarian) was 30.7 µM and the TGI (SR leukemia) was 30 µM. For the same compound, the TGI (MDA-MB-231 breast) was 22.6 µM and the TGI (SF-268 CNS) was 34.2 µM.
`Cc1n[nH]c(=O)n1/N=C/c1ccc(Cl)cc1` was tested, and the TGI (CCRF-CEM leukemia) was 94.8 µM, the TGI (UO-31 renal) was greater than 100 µM and the TGI (SNB-19 CNS) was greater than 100 µM. For the same compound, the TGI (OVCAR-3 ovarian) was greater than 100 µM, the TGI (SR leukemia) was greater than 100 µM and the TGI (SF-268 CNS) was greater than 100 µM.
With `CCC(C(=O)O)c1ccc(OC)cc1` (stereo unspecified) the TGI (CCRF-CEM leukemia) was greater than 100 µM, the TGI (UO-31 renal) was greater than 100 µM and the TGI (NCI-H226 lung) was greater than 100 µM. The TGI (SNB-19 CNS) was greater than 100 µM, the TGI (OVCAR-3 ovarian) was greater than 100 µM and the TGI (IGROV1 ovarian) was greater than 100 µM. It also gave a TGI (SK-MEL-5 melanoma) greater than 100 µM, a TGI (SR leukemia) greater than 100 µM and a TGI (SF-268 CNS) greater than 100 µM.
Work on `O=[N+]([O-])c1ccc2c(c1)c(OCc1ccccc1)nn2Cc1ccccc1` yielded a TGI (CCRF-CEM leukemia) greater than 100 µM, a TGI (UO-31 renal) greater than 100 µM and a TGI (NCI-H226 lung) greater than 100 µM. For the same compound, the TGI (SNB-19 CNS) was greater than 100 µM, the TGI (OVCAR-3 ovarian) was greater than 100 µM and the TGI (IGROV1 ovarian) was greater than 100 µM. The TGI (SK-MEL-5 melanoma) was greater than 100 µM, the TGI (MDA-MB-231 breast) was greater than 100 µM and the TGI (SF-268 CNS) was greater than 100 µM.
For `CC(C)=CCc1c2c(c3occ(-c4ccc(O)cc4)c(=O)c3c1O)CC(C(C)(C)O)O2` (stereo unspecified), the TGI (CCRF-CEM leukemia) was greater than 100 µM, the TGI (UO-31 renal) was 22.2 µM and the TGI (NCI-H226 lung) was 43 µM. The TGI (SNB-19 CNS) was 31.3 µM, the TGI (OVCAR-3 ovarian) was 27.9 µM and the TGI (IGROV1 ovarian) was 12 µM. The TGI (SK-MEL-5 melanoma) was 30.1 µM, the TGI (MDA-MB-231 breast) was 27.6 µM and the TGI (SF-268 CNS) was 48.5 µM.
`Cc1cn2c(/C=N/N=C(N)N)c(-c3cccc([N+](=O)[O-])c3)nc2s1` showed a TGI (CCRF-CEM leukemia) greater than 100 µM, a TGI (UO-31 renal) of 19.6 µM and a TGI (OVCAR-3 ovarian) of 2.51 µM. The TGI (IGROV1 ovarian) was 19.7 µM, the TGI (SK-MEL-5 melanoma) was 3.13 µM and the TGI (MDA-MB-231 breast) was 2.71 µM. For the same compound, the TGI (SF-268 CNS) was 2.58 µM.
Work on `C1CN(c2nc3c(nnc4nc(N5CCOCC5)sc43)s2)CCO1` yielded a TGI (CCRF-CEM leukemia) greater than 100 µM, a TGI (UO-31 renal) greater than 100 µM and a TGI (NCI-H226 lung) greater than 100 µM. For the same compound, the TGI (SNB-19 CNS) was greater than 100 µM, the TGI (OVCAR-3 ovarian) was greater than 100 µM and the TGI (IGROV1 ovarian) was greater than 100 µM. The TGI (SK-MEL-5 melanoma) was greater than 100 µM, the TGI (MDA-MB-231 breast) was greater than 100 µM and the TGI (SF-268 CNS) was greater than 100 µM.
For `O=C(CCN1CCCCC1)C(=Cc1ccccc1)C(=O)CCN1CCCCC1`, the GI50 (CCRF-CEM leukemia) was 2.44 µM, the TGI (CCRF-CEM leukemia) was 7.36 µM and 51.2 µM and the TGI (UO-31 renal) was greater than 100 µM. It also gave a TGI (NCI-H226 lung) greater than 100 µM, a TGI (SNB-19 CNS) greater than 100 µM and a GI50 (OVCAR-3 ovarian) greater than 100 µM. The TGI (OVCAR-3 ovarian) was greater than 100 µM, the TGI (IGROV1 ovarian) was greater than 100 µM and the TGI (SK-MEL-5 melanoma) was greater than 100 µM. The GI50 (SF-268 CNS) was 5.88 µM and the TGI (SF-268 CNS) was greater than 100 µM.
For `COC(=O)C([C@H](NC1(c2ccccc2)c2ccccc2-c2ccccc21)C(=O)OC)N(NC(=O)OCc1ccccc1)C(=O)OCc1ccccc1` (mixture of isomers), the TGI (CCRF-CEM leukemia) was greater than 100 µM, the TGI (UO-31 renal) was greater than 100 µM and the TGI (SNB-19 CNS) was greater than 100 µM. It also gave a TGI (OVCAR-3 ovarian) greater than 100 µM, a TGI (IGROV1 ovarian) greater than 100 µM and a TGI (SK-MEL-5 melanoma) greater than 100 µM. The TGI (SR leukemia) was greater than 100 µM, the TGI (MDA-MB-231 breast) was greater than 100 µM and the TGI (SF-268 CNS) was greater than 100 µM.
In the case of `CCOC(=O)c1csc(NC(=O)CN2CCOCC2)n1`, the TGI (CCRF-CEM leukemia) is reported as greater than 100 µM, the TGI (UO-31 renal) is reported as greater than 100 µM and the TGI (SNB-19 CNS) is reported as greater than 100 µM. The TGI (OVCAR-3 ovarian) was greater than 100 µM, the TGI (IGROV1 ovarian) was greater than 100 µM and the TGI (SK-MEL-5 melanoma) was greater than 100 µM. For the same compound, the TGI (SR leukemia) was greater than 100 µM, the TGI (MDA-MB-231 breast) was greater than 100 µM and the TGI (SF-268 CNS) was greater than 100 µM.
Compound `CN(C)C(=O)O/N=C1/C(c2c(O)[nH]c3ccccc23)=Nc2ccccc21` has a TGI (CCRF-CEM leukemia) greater than 100 µM, a TGI (UO-31 renal) greater than 100 µM and a TGI (SNB-19 CNS) of 39.1 µM. The TGI (OVCAR-3 ovarian) was 57 µM, the TGI (IGROV1 ovarian) was 64 µM and the TGI (SK-MEL-5 melanoma) was greater than 100 µM. It also gave a TGI (SR leukemia) of 35.4 µM, a TGI (MDA-MB-231 breast) of 65 µM and a TGI (SF-268 CNS) of 28.5 µM.
`CCOC(=O)C1(C/C=C/CBr)Cc2ccccc2C1=O` (stereo unspecified) was tested, and the TGI (CCRF-CEM leukemia) was 5.36 µM, the TGI (UO-31 renal) was 4.83 µM and the TGI (SNB-19 CNS) was 37.2 µM. It also gave a TGI (OVCAR-3 ovarian) of 4.54 µM, a TGI (IGROV1 ovarian) of 10.3 µM and a TGI (SK-MEL-5 melanoma) of 7.66 µM. For the same compound, the TGI (MDA-MB-231 breast) was 28.9 µM and the TGI (SF-268 CNS) was 10 µM.
For `N#CCCC1C(C#N)C2(Cl)CC1(Cl)C(Cl)=C2Cl` (stereo unspecified), the TGI (CCRF-CEM leukemia) was greater than 10 µM, the TGI (UO-31 renal) was greater than 10 µM and the TGI (NCI-H226 lung) was greater than 10 µM. For the same compound, the TGI (SNB-19 CNS) was greater than 10 µM, the TGI (OVCAR-3 ovarian) was greater than 10 µM and the TGI (IGROV1 ovarian) was greater than 10 µM. For the same compound, the TGI (SK-MEL-5 melanoma) was greater than 10 µM, the TGI (MDA-MB-231 breast) was greater than 10 µM and the TGI (SF-268 CNS) was greater than 10 µM.
